Source: ChEMBL document CHEMBL3885861, “Open TG-GATES”

Species: Rattus norvegicus
Assay: Open TG-GATES - Regimen: Single
Type: toxicity, organism-based, Sprague-Dawley
Set-up: regimen Single, gender Male, age 6 weeks
Details: in vivo, po, 0 mg/kg, route gavage, dose level Control; for APTT / Bas / Eos / Fbg / Hb / Ht / Lym / MCH / MCHC / MCV / Mono / Neu / PT / Plat / RBC / Ret / WBC: tissue Blood; for KIDNEY_L / KIDNEY_R / KIDNEY_TOTAL: tissue Kidney; for LIVER: tissue Liver; for A/G / ALP / ALT / AST / BUN / CRE / Ca / Cl / DBIL / GLC / IP / K / LDH / Na / PL / RALB / TBIL / TC / TG / TP / gamma-GTP: tissue Plasma

For `CCCNC(=O)NS(=O)(=O)c1ccc(Cl)cc1` [CHLORPROPAMIDE], the TERMINAL_BW (3 h) was 199.1 g, the APTT (3 h) was 16.5 s and the Bas (3 h) was 0.4%. For the same molecule, the Eos (3 h) was 1%, the Fbg (3 h) was 290 mg/dL and the Hb (3 h) was 13.3 g/dL. For the same molecule, the Ht (3 h) was 40.3%, the Lym (3 h) was 76.2% and the MCH (3 h) was 21.1 pg. For the same molecule, the MCHC (3 h) was 32.9%, the MCV (3 h) was 64.1 fL and the Mono (3 h) was 3.4%. For the same molecule, the Neu (3 h) was 17.8%, the PT (3 h) was 15.6 s and the Plat (3 h) was 118.9 x10_4/uL. The RBC (3 h) was 629.8 x10_4/ul, the Ret (3 h) was 8.9% and the WBC (3 h) was 85.4 x10_2/uL. It also gave a KIDNEY_L (3 h) of 0.9 g, a KIDNEY_R (3 h) of 0.9 g and a KIDNEY_TOTAL (3 h) of 1.8 g. It also gave an LIVER (3 h) of 8.8 g, an A/G (3 h) of 0.9 and an ALP (3 h) of 1444 IU/L. For the same molecule, the ALT (3 h) was 43.6 IU/L, the AST (3 h) was 75.8 IU/L and the BUN (3 h) was 10.4 mg/dL. For the same molecule, the CRE (3 h) was 0.2 mg/dL, the Ca (3 h) was 10.9 mg/dL and the Cl (3 h) was 106 meq/L. For the same molecule, the DBIL (3 h) was 0.01 mg/dL, the GLC (3 h) was 176.6 mg/dL and the IP (3 h) was 8.9 mg/dL. It also gave a K (3 h) of 4.3 meq/L, an LDH (3 h) of 89 IU/L and a Na (3 h) of 142.2 meq/L. For the same molecule, the PL (3 h) was 137.8 mg/dL, the RALB (3 h) was 2.5 g/dL and the TBIL (3 h) was 0.04 mg/dL. For the same molecule, the TC (3 h) was 80.2 mg/dL, the TG (3 h) was 53.8 mg/dL and the TP (3 h) was 5.4 g/dL. It also gave a gamma-GTP (3 h) of 1.4 IU/L, a TERMINAL_BW (6 h) of 194.7 g and an APTT (6 h) of 18.3 s. It also gave a Bas (6 h) of 0.2%, an Eos (6 h) of 1% and a Fbg (6 h) of 308.8 mg/dL. The Hb (6 h) was 13.2 g/dL, the Ht (6 h) was 40.5% and the Lym (6 h) was 71.2%. The MCH (6 h) was 21 pg, the MCHC (6 h) was 32.6% and the MCV (6 h) was 64.3 fL. For the same molecule, the Mono (6 h) was 3%, the Neu (6 h) was 23.8% and the PT (6 h) was 15.4 s. For the same molecule, the Plat (6 h) was 108.8 x10_4/uL, the RBC (6 h) was 630.6 x10_4/ul and the Ret (6 h) was 9.2%. The WBC (6 h) was 85.6 x10_2/uL, the KIDNEY_L (6 h) was 0.9 g and the KIDNEY_R (6 h) was 0.9 g. For the same molecule, the KIDNEY_TOTAL (6 h) was 1.7 g, the LIVER (6 h) was 8.2 g and the A/G (6 h) was 0.9. For the same molecule, the ALP (6 h) was 1385.6 IU/L, the ALT (6 h) was 42.4 IU/L and the AST (6 h) was 74.4 IU/L. The BUN (6 h) was 9.4 mg/dL, the CRE (6 h) was 0.2 mg/dL and the Ca (6 h) was 10.7 mg/dL. The Cl (6 h) was 106 meq/L, the DBIL (6 h) was 0.01 mg/dL and the GLC (6 h) was 174 mg/dL. The IP (6 h) was 9.8 mg/dL, the K (6 h) was 4.2 meq/L and the LDH (6 h) was 63.6 IU/L. It also gave a Na (6 h) of 143 meq/L, a PL (6 h) of 153.4 mg/dL and an RALB (6 h) of 2.5 g/dL. It also gave a TBIL (6 h) of 0.046 mg/dL, a TC (6 h) of 90.6 mg/dL and a TG (6 h) of 50.6 mg/dL. For the same molecule, the TP (6 h) was 5.4 g/dL, the gamma-GTP (6 h) was 1 IU/L and the TERMINAL_BW (9 h) was 194.8 g. The APTT (9 h) was 18.5 s, the Bas (9 h) was 0% and the Eos (9 h) was 0.8%. The Fbg (9 h) was 294.6 mg/dL, the Hb (9 h) was 12.9 g/dL and the Ht (9 h) was 39.6%. For the same molecule, the Lym (9 h) was 74.4%, the MCH (9 h) was 21.3 pg and the MCHC (9 h) was 32.8%. For the same molecule, the MCV (9 h) was 65.1 fL, the Mono (9 h) was 2.2% and the Neu (9 h) was 21%. For the same molecule, the PT (9 h) was 15.4 s, the Plat (9 h) was 119.1 x10_4/uL and the RBC (9 h) was 607.8 x10_4/ul. The Ret (9 h) was 9.1%, the WBC (9 h) was 91.1 x10_2/uL and the KIDNEY_L (9 h) was 0.9 g. For the same molecule, the KIDNEY_R (9 h) was 0.9 g, the KIDNEY_TOTAL (9 h) was 1.8 g and the LIVER (9 h) was 7.6 g. For the same molecule, the A/G (9 h) was 0.9, the ALP (9 h) was 1410 IU/L and the ALT (9 h) was 42 IU/L. For the same molecule, the AST (9 h) was 74.6 IU/L, the BUN (9 h) was 8.4 mg/dL and the CRE (9 h) was 0.2 mg/dL. The Ca (9 h) was 10.6 mg/dL, the Cl (9 h) was 106.8 meq/L and the DBIL (9 h) was 0.006 mg/dL. It also gave a GLC (9 h) of 165.4 mg/dL, an IP (9 h) of 10 mg/dL and a K (9 h) of 3.9 meq/L. The LDH (9 h) was 63.6 IU/L, the Na (9 h) was 142.8 meq/L and the PL (9 h) was 136.6 mg/dL. For the same molecule, the RALB (9 h) was 2.5 g/dL, the TBIL (9 h) was 0.052 mg/dL and the TC (9 h) was 84.4 mg/dL. The TG (9 h) was 41.4 mg/dL, the TP (9 h) was 5.4 g/dL and the gamma-GTP (9 h) was 1 IU/L. The TERMINAL_BW (24 h) was 211.4 g, the APTT (24 h) was 16.9 s and the Bas (24 h) was 0.2%. The Eos (24 h) was 0.8%, the Fbg (24 h) was 277.8 mg/dL and the Hb (24 h) was 13 g/dL. The Ht (24 h) was 40.6%, the Lym (24 h) was 80% and the MCH (24 h) was 21.7 pg. The MCHC (24 h) was 32.2%, the MCV (24 h) was 67.3 fL and the Mono (24 h) was 2.8%. It also gave a Neu (24 h) of 15%, a PT (24 h) of 15.5 s and a Plat (24 h) of 117.6 x10_4/uL. The RBC (24 h) was 602.6 x10_4/ul, the Ret (24 h) was 9.2% and the WBC (24 h) was 102.7 x10_2/uL. For the same molecule, the KIDNEY_L (24 h) was 0.9 g, the KIDNEY_R (24 h) was 0.9 g and the KIDNEY_TOTAL (24 h) was 1.9 g. The LIVER (24 h) was 10.1 g, the A/G (24 h) was 0.8 and the ALP (24 h) was 1569 IU/L. For the same molecule, the ALT (24 h) was 44.8 IU/L, the AST (24 h) was 71.8 IU/L and the BUN (24 h) was 14.6 mg/dL. For the same molecule, the CRE (24 h) was 0.2 mg/dL, the Ca (24 h) was 10.9 mg/dL and the Cl (24 h) was 105.4 meq/L. It also gave a DBIL (24 h) of 0.012 mg/dL, a GLC (24 h) of 187 mg/dL and an IP (24 h) of 8.5 mg/dL. The K (24 h) was 4.2 meq/L, the LDH (24 h) was 79.4 IU/L and the Na (24 h) was 142.6 meq/L. It also gave a PL (24 h) of 154 mg/dL, an RALB (24 h) of 2.6 g/dL and a TBIL (24 h) of 0.034 mg/dL. The TC (24 h) was 82.6 mg/dL, the TG (24 h) was 108.6 mg/dL and the TP (24 h) was 5.6 g/dL. For the same molecule, the gamma-GTP (24 h) was 1 IU/L.
